Article PMC5218480 (PLoS ONE, 2017)

System: MV-4-11 cells
Assay: Gene expression microarray analysis (Affymetrix PrimeView) and GSEA
Format: cell-based, human
Design: RFU PODN (11730768_x_at) / Fold change /veh PODN (11730768_x_at) / RFU LINC00158 (11744669_a_at) / Fold change /veh LINC00158 (11744669_a_at) / RFU DUSP10 (11751237_a_at) / Fold change /veh DUSP10 (11751237_a_at) / RFU ID3 (11757404_x_at) / Fold change /veh ID3 (11757404_x_at) / RFU PLEKHG5 (11737974_s_at) / Fold change /veh PLEKHG5 (11737974_s_at) / RFU LRRC4B (11730491_at) / Fold change /veh LRRC4B (11730491_at) / RFU GIMAP4 (11747438_a_at) / Fold change /veh GIMAP4 (11747438_a_at) / RFU KRT8 (11758183_x_at) / Fold change /veh KRT8 (11758183_x_at) / RFU CNN1 (11734310_a_at) / Fold change /veh CNN1 (11734310_a_at) / RFU VPS37D (11726825_at) / Fold change /veh VPS37D (11726825_at) / RFU C10orf10 (11716522_x_at) / Fold change /veh C10orf10 (11716522_x_at) / RFU KIR2DL2 /// KIR2DL4 /// KIR2DL5A /// KIR2DL5B /// KIR2DS1 /// KIR2DS2 /// KIR2DS3 /// KIR2DS4 /// KIR3DL3 /// KIR3DL3 /// KIR3DS1 (11738374_at) / Fold change /veh KIR2DL2 /// KIR2DL4 /// KIR2DL5A /// KIR2DL5B /// KIR2DS1 /// KIR2DS2 /// KIR2DS3 /// KIR2DS4 /// KIR3DL3 /// KIR3DL3 /// KIR3DS1 (11738374_at) / RFU C1QL1 (11718748_at) / Fold change /veh C1QL1 (11718748_at) / RFU TMPRSS4 (11747572_a_at) / Fold change /veh TMPRSS4 (11747572_a_at) / RFU HAMP (11756126_x_at) / Fold change /veh HAMP (11756126_x_at) / RFU RNFT2 (11725882_a_at) / Fold change /veh RNFT2 (11725882_a_at) / RFU NR4A2 (11747474_a_at) / Fold change /veh NR4A2 (11747474_a_at) / RFU ABCC12 (11746883_a_at) / Fold change /veh ABCC12 (11746883_a_at) / RFU TMEM136 (11760407_x_at) / Fold change /veh TMEM136 (11760407_x_at) / RFU CLDN22 /// WWC2 (11732394_at) / Fold change /veh CLDN22 /// WWC2 (11732394_at) / RFU HLA-DPB1 (11760878_x_at) / Fold change /veh HLA-DPB1 (11760878_x_at) / RFU SPINT1 (11716480_a_at) / Fold change /veh SPINT1 (11716480_a_at) / RFU GAP43 (11754022_s_at) / Fold change /veh GAP43 (11754022_s_at) / RFU A4GNT (11735810_at) / Fold change /veh A4GNT (11735810_at) / RFU PRB3 (11715151_x_at) / Fold change /veh PRB3 (11715151_x_at) / RFU TUBB4B (11761932_at) / Fold change /veh TUBB4B (11761932_at) / RFU CAPN14 (11732068_a_at) / Fold change /veh CAPN14 (11732068_a_at) / RFU TMCC2 (11721928_a_at) / Fold change /veh TMCC2 (11721928_a_at) / RFU IRGQ (11745062_a_at) / Fold change /veh IRGQ (11745062_a_at) / RFU FAM174B (11720279_a_at) / Fold change /veh FAM174B (11720279_a_at) / RFU TMPRSS4 (11748680_a_at) / Fold change /veh TMPRSS4 (11748680_a_at) / RFU FAM212B (11763350_a_at) / Fold change /veh FAM212B (11763350_a_at) / RFU PLEKHG5 (11743358_a_at) / Fold change /veh PLEKHG5 (11743358_a_at) / RFU ZSCAN30 (11745921_a_at) / Fold change /veh ZSCAN30 (11745921_a_at) / RFU CMKLR1 (11741424_a_at) / Fold change /veh CMKLR1 (11741424_a_at) / RFU LOC101060620 /// MAPK8IP1 (11723275_at) / Fold change /veh LOC101060620 /// MAPK8IP1 (11723275_at) / RFU SPTSSB (11747773_x_at) / Fold change /veh SPTSSB (11747773_x_at) / RFU PRSS12 (11739890_at) / Fold change /veh PRSS12 (11739890_at) / RFU BIN1 (11741810_x_at) / Fold change /veh BIN1 (11741810_x_at) / RFU WNT11 (11732464_a_at) / Fold change /veh WNT11 (11732464_a_at) / RFU C10orf10 (11716521_a_at) / Fold change /veh C10orf10 (11716521_a_at) / RFU C5orf56 (11738089_at) / Fold change /veh C5orf56 (11738089_at) / RFU CYB561 (11721691_x_at) / Fold change /veh CYB561 (11721691_x_at) / RFU ANKRD19P (11752326_a_at) / Fold change /veh ANKRD19P (11752326_a_at) / RFU OR2T12 /// OR2T33 /// OR2T8 (11738714_s_at) / Fold change /veh OR2T12 /// OR2T33 /// OR2T8 (11738714_s_at) / RFU VCAN (11748164_a_at) / Fold change /veh VCAN (11748164_a_at) / RFU JSRP1 (11732532_at) / Fold change /veh JSRP1 (11732532_at) / RFU KRTAP10-11 (11738290_x_at) / Fold change /veh KRTAP10-11 (11738290_x_at) / RFU MYO3A (11730013_a_at) / Fold change /veh MYO3A (11730013_a_at) / RFU EBF3 (11725865_a_at) / Fold change /veh EBF3 (11725865_a_at) / RFU CAMK2N1 (11719241_x_at) / Fold change /veh CAMK2N1 (11719241_x_at) / RFU C5orf56 (11738088_a_at) / Fold change /veh C5orf56 (11738088_a_at) / RFU OLFML3 (11715873_a_at) / Fold change /veh OLFML3 (11715873_a_at) / RFU LOC100653217 /// NTM (11731650_a_at) / Fold change /veh LOC100653217 /// NTM (11731650_a_at) / RFU MAPK11 (11762145_a_at) / Fold change /veh MAPK11 (11762145_a_at) / RFU FIZ1 (11724087_x_at) / Fold change /veh FIZ1 (11724087_x_at) / RFU OASL (11726364_x_at) / Fold change /veh OASL (11726364_x_at) / RFU SOX15 (11748057_x_at) / Fold change /veh SOX15 (11748057_x_at) / RFU CD79A (11719716_a_at) / Fold change /veh CD79A (11719716_a_at) / RFU HIST1H1D (11736915_at) / Fold change /veh HIST1H1D (11736915_at) / RFU CASKIN2 (11723855_a_at) / Fold change /veh CASKIN2 (11723855_a_at) / RFU LOC730098 (11760151_x_at) / Fold change /veh LOC730098 (11760151_x_at) / RFU OR4N2 (11742367_at) / Fold change /veh OR4N2 (11742367_at) / RFU PRRT2 (11749266_a_at) / Fold change /veh PRRT2 (11749266_a_at) / RFU SNX32 (11753110_a_at) / Fold change /veh SNX32 (11753110_a_at) / RFU CDHR5 (11726645_a_at) / Fold change /veh CDHR5 (11726645_a_at) / RFU RCAN1 (11760418_a_at) / Fold change /veh RCAN1 (11760418_a_at) / RFU FAM167A (11723789_a_at) / Fold change /veh FAM167A (11723789_a_at) / RFU FAM26E (11764081_at) / Fold change /veh FAM26E (11764081_at) / RFU ISYNA1 (11749810_s_at) / Fold change /veh ISYNA1 (11749810_s_at) / RFU ACY1 (11761880_at) / Fold change /veh ACY1 (11761880_at) / RFU 11764098_at / Fold change /veh 11764098_at / RFU SAMD14 (11745864_x_at) / Fold change /veh SAMD14 (11745864_x_at) / RFU NPB (11741838_a_at) / Fold change /veh NPB (11741838_a_at) / RFU TMPRSS6 (11731388_a_at) / Fold change /veh TMPRSS6 (11731388_a_at) / RFU KRTAP10-2 (11738614_at) / Fold change /veh KRTAP10-2 (11738614_at) / RFU ARHGAP8 /// PRR5-ARHGAP8 (11727945_x_at) / Fold change /veh ARHGAP8 /// PRR5-ARHGAP8 (11727945_x_at) / RFU KRTAP5-7 /// NADSYN1 (11734609_at) / Fold change /veh KRTAP5-7 /// NADSYN1 (11734609_at) / RFU RASL12 (11751679_a_at) / Fold change /veh RASL12 (11751679_a_at) / RFU CDKN2B (11736163_a_at) / Fold change /veh CDKN2B (11736163_a_at) / RFU PRF1 (11729649_at) / Fold change /veh PRF1 (11729649_at) / RFU, ZNF638 /// ZNF638-IT1 / Fold change vs veh, ZNF638 /// ZNF638-IT1 / RFU, PANK3 / Fold change vs veh, PANK3 / RFU, SH3YL1 / Fold change vs veh, SH3YL1 / RFU, ZEB2 / Fold change vs veh, ZEB2 / RFU, NRIP1 / Fold change vs veh, NRIP1 / RFU, PTTG1IP / Fold change vs veh, PTTG1IP / RFU, CAPN2 / Fold change vs veh, CAPN2 / RFU, MED14 / Fold change vs veh, MED14 / RFU, SNORA58 / Fold change vs veh, SNORA58 / RFU, C1orf63 / Fold change vs veh, C1orf63 / RFU, LRRFIP1 / Fold change vs veh, LRRFIP1 / RFU, NDUFAF7 / Fold change vs veh, NDUFAF7 / RFU, SLC12A2 / Fold change vs veh, SLC12A2 / RFU, IBTK / Fold change vs veh, IBTK / RFU, ESF1 / Fold change vs veh, ESF1 / Fold change vs veh, TMEM50B / RFU, TAOK1 / Fold change vs veh, TAOK1 / RFU, ACBD3 / Fold change vs veh, ACBD3 / RFU, TMA16 / Fold change vs veh, TMA16 / RFU, RWDD3 / Fold change vs veh, RWDD3 / RFU, BCAT1 / Fold change vs veh, BCAT1 / RFU, EDEM3 / Fold change vs veh, EDEM3 / RFU, TMEM33 / Fold change vs veh, TMEM33 / RFU, WDR75 / Fold change vs veh, WDR75 / RFU, AHCTF1 / Fold change vs veh, AHCTF1 / RFU, TFRC / Fold change vs veh, TFRC / RFU, ZDHHC17 / Fold change vs veh, ZDHHC17 / RFU, NOM1 / Fold change vs veh, NOM1 / RFU, ARL8B / Fold change vs veh, ARL8B / RFU, ZBTB11 / Fold change vs veh, ZBTB11 / RFU, TAMM41 / Fold change vs veh, TAMM41 / RFU, KIAA1704 /// LOC100996395 / Fold change vs veh, KIAA1704 /// LOC100996395 / RFU, ING1 / Fold change vs veh, ING1 / RFU, TRMT61B / Fold change vs veh, TRMT61B / RFU, FUBP3 / Fold change vs veh, FUBP3 / RFU, TP53 / Fold change vs veh, TP53 / RFU, TNKS2 / Fold change vs veh, TNKS2 / RFU, ZFP14 / Fold change vs veh, ZFP14 / RFU, ACTR2 / Fold change vs veh, ACTR2 / RFU, PPP3R1 / Fold change vs veh, PPP3R1 / RFU, PIK3R1 / Fold change vs veh, PIK3R1 / RFU, HNRNPA1 / Fold change vs veh, HNRNPA1 / RFU, RNF170 / Fold change vs veh, RNF170 / RFU, ZNF28 / Fold change vs veh, ZNF28 / RFU, RNGTT / Fold change vs veh, RNGTT / RFU, OGT / Fold change vs veh, OGT / RFU, BRD1 / Fold change vs veh, BRD1 / RFU, MARS / Fold change vs veh, MARS / RFU, ZNF655 / Fold change vs veh, ZNF655 / RFU, FAHD1 / Fold change vs veh, FAHD1 / RFU, BDP1 / Fold change vs veh, BDP1 / RFU, LRRCC1 / Fold change vs veh, LRRCC1 / RFU, ARID1A / Fold change vs veh, ARID1A / RFU, ZNF146 / Fold change vs veh, ZNF146 / RFU, ZNF330 / Fold change vs veh, ZNF330 / RFU, GPN3 / Fold change vs veh, GPN3 / RFU, C9orf123 / Fold change vs veh, C9orf123 / RFU, N4BP2L2 / Fold change vs veh, N4BP2L2 / RFU, ARFIP1 / Fold change vs veh, ARFIP1 / RFU, FAM179B / Fold change vs veh, FAM179B / RFU, BCL10 / Fold change vs veh, BCL10 / RFU, UHRF1BP1L / Fold change vs veh, UHRF1BP1L / RFU, BET1 / Fold change vs veh, BET1 / RFU, CNOT2 / Fold change vs veh, CNOT2 / RFU, ZNF268 / Fold change vs veh, ZNF268 / Fold change vs veh, ZNF507 / RFU, DGCR2 / Fold change vs veh, DGCR2 / RFU, WDSUB1 / Fold change vs veh, WDSUB1 / Fold change vs veh, HSP90B1 /// MIR3652 / RFU, ADSS / Fold change vs veh, ADSS / RFU, GK / Fold change vs veh, GK / RFU, ZNF148 / Fold change vs veh, ZNF148 / RFU, TAF9 / Fold change vs veh, TAF9 / RFU, SLC1A5 / Fold change vs veh, SLC1A5 / RFU, SLMO2 / Fold change vs veh, SLMO2 / RFU, ABCC4 / Fold change vs veh, ABCC4 / RFU, LOC101060439 /// RAP1B / Fold change vs veh, LOC101060439 /// RAP1B / RFU, RFX7 / Fold change vs veh, RFX7 / RFU, GTPBP10 / Fold change vs veh, GTPBP10 / RFU, CNEP1R1 / Fold change vs veh, CNEP1R1 / RFU, BIVM-ERCC5 /// ERCC5 / Fold change vs veh, BIVM-ERCC5 /// ERCC5 / RFU, ILF3 / Fold change vs veh, ILF3 / RFU 11762660_at / Fold change /veh 11762660_at / RFU VCAN (11757783_s_at) / Fold change /veh VCAN (11757783_s_at) / RFU DDX43 (11728927_at) / Fold change /veh DDX43 (11728927_at) / RFU KRT8 (11758188_x_at) / Fold change /veh KRT8 (11758188_x_at) / RFU NKD1 (11759106_at) / Fold change /veh NKD1 (11759106_at) / RFU SRD5A1 (11742802_a_at) / Fold change /veh SRD5A1 (11742802_a_at) / RFU TPSAB1 /// TPSB2 (11721975_s_at) / Fold change /veh TPSAB1 /// TPSB2 (11721975_s_at) / RFU GSTM3 (11746129_a_at) / Fold change /veh GSTM3 (11746129_a_at) / RFU IL23R (11737362_x_at) / Fold change /veh IL23R (11737362_x_at) / RFU TMEM51 (11727254_a_at) / Fold change /veh TMEM51 (11727254_a_at) / RFU PIWIL2 (11732686_x_at) / Fold change /veh PIWIL2 (11732686_x_at) / RFU ORM1 (11744905_x_at) / Fold change /veh ORM1 (11744905_x_at) / RFU CCDC152 (11743942_at) / Fold change /veh CCDC152 (11743942_at) / RFU ECM1 (11717891_a_at) / Fold change /veh ECM1 (11717891_a_at) / RFU IL23R (11748794_a_at) / Fold change /veh IL23R (11748794_a_at) / RFU TNFAIP8L3 (11732012_x_at) / Fold change /veh TNFAIP8L3 (11732012_x_at) / RFU MBOAT4 (11741988_at) / Fold change /veh MBOAT4 (11741988_at) / RFU 11764193_at / Fold change /veh 11764193_at / RFU TMEM53 (11763286_at) / Fold change /veh TMEM53 (11763286_at) / RFU MAGEB2 (11727129_at) / Fold change /veh MAGEB2 (11727129_at) / RFU TMEM200A (11744735_a_at) / Fold change /veh TMEM200A (11744735_a_at) / RFU CCDC152 (11751479_a_at) / Fold change /veh CCDC152 (11751479_a_at) / RFU FAM211A (11726209_a_at) / Fold change /veh FAM211A (11726209_a_at) / RFU RGS16 (11746705_a_at) / Fold change /veh RGS16 (11746705_a_at) / RFU VCAN (11755009_s_at) / Fold change /veh VCAN (11755009_s_at) / RFU RHOB (11743442_s_at) / Fold change /veh RHOB (11743442_s_at) / RFU RGS16 (11720943_a_at) / Fold change /veh RGS16 (11720943_a_at) / RFU RGS16 (11720944_at) / Fold change /veh RGS16 (11720944_at) / RFU, VPS4B / Fold change vs veh, VPS4B / RFU, CREB1 / Fold change vs veh, CREB1 / RFU, DNAJC13 / Fold change vs veh, DNAJC13 / RFU, GNAQ / Fold change vs veh, GNAQ / RFU, CDK5R1 / Fold change vs veh, CDK5R1 / RFU, ZRANB3 / Fold change vs veh, ZRANB3 / RFU, CUL4A / Fold change vs veh, CUL4A / RFU, CCNY / Fold change vs veh, CCNY / RFU, UFL1 / Fold change vs veh, UFL1 / RFU, COG3 / Fold change vs veh, COG3 / RFU, DIAPH2 / Fold change vs veh, DIAPH2 / RFU, SKA2 / Fold change vs veh, SKA2 / RFU, AFF3 / Fold change vs veh, AFF3 / RFU, LMF1 / Fold change vs veh, LMF1 / RFU, IPO11 / Fold change vs veh, IPO11 / RFU, DFFB / Fold change vs veh, DFFB / RFU, FOXP1 / Fold change vs veh, FOXP1 / RFU, CARD8 / Fold change vs veh, CARD8 / RFU, STRN3 / Fold change vs veh, STRN3 / RFU, ADK / Fold change vs veh, ADK / RFU, RASSF2 / Fold change vs veh, RASSF2 / RFU, WIPF1 / Fold change vs veh, WIPF1 / RFU, LARP1B / Fold change vs veh, LARP1B / RFU, RASA1 / Fold change vs veh, RASA1 / RFU, RB1 / Fold change vs veh, RB1 / RFU, PPFIA1 / Fold change vs veh, PPFIA1 / RFU, MAT2A / Fold change vs veh, MAT2A / RFU, CCT5 / Fold change vs veh, CCT5 / RFU, WDR92 / Fold change vs veh, WDR92 / RFU, CUX1 / Fold change vs veh, CUX1 / RFU, TTC7A / Fold change vs veh, TTC7A / RFU, TMEM135 / Fold change vs veh, TMEM135 / RFU, DEPTOR / Fold change vs veh, DEPTOR / RFU, CPM / Fold change vs veh, CPM / RFU, DNAJB6 / Fold change vs veh, DNAJB6 / RFU, CACNA2D3 / Fold change vs veh, CACNA2D3 / RFU, DTX4 / Fold change vs veh, DTX4 / RFU, TFCP2 / Fold change vs veh, TFCP2 / RFU, GMCL1 /// GMCL1P1 / Fold change vs veh, GMCL1 /// GMCL1P1 / RFU, AEBP2 / Fold change vs veh, AEBP2 / RFU, SNHG1 /// SNORD22 /// SNORD25 /// SNORD26 /// SNORD27 /// SNORD28 /// SNORD29 /// SNORD31 / Fold change vs veh, SNHG1 /// SNORD22 /// SNORD25 /// SNORD26 /// SNORD27 /// SNORD28 /// SNORD29 /// SNORD31 / Fold change (Aza/veh), C12orf56 (ProbeSet 11735607_a_at) / Fold change (ACY-1035/veh), C12orf56 (ProbeSet 11735607_a_at) / Fold change (Aza/veh), FGFR1OP (ProbeSet 11751329_s_at) / Fold change (ACY-1035/veh), FGFR1OP (ProbeSet 11751329_s_at) / Fold change (Aza/veh), VPS36 (ProbeSet 11739960_a_at) / Fold change (ACY-1035/veh), VPS36 (ProbeSet 11739960_a_at) / RFU SYPL1 (11715823_x_at) / Fold change /veh SYPL1 (11715823_x_at) / RFU IGFBP7 (11715501_s_at) / Fold change /veh IGFBP7 (11715501_s_at) / RFU REEP3 (11722064_at) / Fold change /veh REEP3 (11722064_at) / RFU IGLL1 (11728026_x_at) / Fold change /veh IGLL1 (11728026_x_at): dose or concentration left out as unconfirmed
Settings: ProbeSet 11725901_x_at; LIST B

In the case of Nc1ncn([C@@H]2O[C@H](CO)[C@@H](O)[C@H]2O)c(=O)n1 [azacitidine], the “Fold change vs veh, RWDD3” value was 0.96.
